Measured values published in publication PMC8400955 (Pharmaceuticals, 2021).

Key:
CYP2E1 = CYP2E1 (Homo sapiens, UniProt P05181); experiment: CYP phenotyping, recombinant CYP2E1
human plasma proteins = experiment: Plasma protein binding by equilibrium dialysis, human; assay type: in vitro ADME; conditions: for Remaining: 6 h
Procedure: (§1) The in vitro binding of ZB716 to plasma proteins was determined by equilibrium dialysis technique in mouse, rat, dog, monkey, and human plasma (EDTA-K2 as anticoagulant), over the concentration range of 0.1–10 μM. The free concentration of ZB716 was below the lower limit of quantitation at 0.1, 1, and 10 μM in human, monkey, dog, rat, and mouse plasma.
(§2) The equilibrium dialysis method was used to investigate the in vitro binding of ZB716 to human, monkey, dog, rat, and mouse plasma proteins. The dialysis phosphate buffer solution (100 mM, pH 7.4) and plasma samples containing 0.1, 1, and 10 μM of ZB716 were added to separate chambers of dialysis wells of the HTDialysis device. The dialysis plate was placed in an incubator at 37 °C with 5% CO2 at approximately 100 rpm for 6 h. After incubation, the seal was removed, and 50 μL each of post-dialysis samples was pipetted from both the buffer and plasma chambers into fresh 96-well plates. The samples were analyzed via UPLC–MS/MS. The bound fraction, unbound fraction, recovery (%), and remaining (%) were calculated by Equations (2)–(5):%Unbound = (Conc.buffer chamber/Conc.plasma chamber) × 100(2) %Bound = 100% − %Unbound (3) %Recovery = (Conc.buffer chamber + Conc.plasma chamber)/Conc.Total sample × 100 (4) %Remaining = Conc.6h/Conc.0h × 100 (5)

[1] = as above; assay type: in vitro ADME; conditions: plasma (EDTA-K2 as anticoagulant)
Procedure: as §1, §2

[2] = Metabolic stability in mouse hepatocytes; assay type: in vitro ADME
Procedure: (§3) Hepatocytes of humans (#X008001), dogs (#M00205), rats (#M00005), and mice (#M005052) were purchased from BioIVT, NY, USA. Monkey hepatocytes were procured from RILD, Shanghai, China. The metabolic stability of ZB716 in human, monkey, dog, rat and mouse hepatocytes was investigated by incubating ZB716 with human, monkey, dog, rat, and mouse hepatocytes (0.5 × 10^6 cells/mL), or with incubation medium only.
(§4) parent disappearance vs. incubation time curve.
(§5) Scaled-up Clint = kV/N × Scaling Factor
(§6) metabolite formed during the reaction.

mouse hepatocytes = experiment: Metabolic stability in mouse hepatocytes; assay type: in vitro ADME; conditions: 1 μM
Procedure: as §3, §4, §5, §6

CYP3A4 = experiment: CYP induction (enzyme activity) in cryopreserved human hepatocytes, CYP3A4; assay type: in vitro ADME; conditions: for fold induction at 72 h, 0.15 µM / fold induction at 72 h, 1.5 µM / fold induction at 72 h, 5 µM / fold induction at 72 h, 15 µM: human, plated cryopreserved human hepatocytes

CYP2E1, sequence (P05181 whole entry): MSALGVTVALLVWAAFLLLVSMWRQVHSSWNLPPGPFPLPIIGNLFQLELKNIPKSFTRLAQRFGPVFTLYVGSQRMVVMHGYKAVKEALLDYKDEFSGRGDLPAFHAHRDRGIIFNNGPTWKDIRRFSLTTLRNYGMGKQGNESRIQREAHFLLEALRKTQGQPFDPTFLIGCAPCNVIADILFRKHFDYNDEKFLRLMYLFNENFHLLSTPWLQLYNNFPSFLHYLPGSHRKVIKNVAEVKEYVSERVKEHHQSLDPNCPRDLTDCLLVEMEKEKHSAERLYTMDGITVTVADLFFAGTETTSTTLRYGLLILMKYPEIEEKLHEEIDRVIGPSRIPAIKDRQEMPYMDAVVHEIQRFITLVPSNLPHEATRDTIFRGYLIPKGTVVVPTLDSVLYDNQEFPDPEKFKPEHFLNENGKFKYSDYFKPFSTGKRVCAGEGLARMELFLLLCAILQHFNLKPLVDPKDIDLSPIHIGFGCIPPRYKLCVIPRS

Work on C[C@]12CC[C@@H]3c4ccc(B(O)O)cc4C[C@@H](CCCCCCCCC[S+]([O-])CCCC(F)(F)C(F)(F)F)[C@H]3[C@@H]1CC[C@@H]2O (some centres unmarked) [ZB716, fulvestrant-3-boronic acid] yielded a half-life at 2 µM (CYP2E1; human) of 19.4 ± 1.2 min, a Clint (CYP2E1; recombinant CYP2E1, 2 µM ZB716) of 0.716 ± 0.044 µL/min/pmol CYP and a Bound (human plasma proteins; 0.1 μM) greater than 95.7%. For the same compound, the Unbound (human plasma proteins; 0.1 μM) was less than 4.33%, the Remaining (human plasma proteins; 0.1 μM) was 57.0 ± 7.7% and the Bound (human plasma proteins; 1 μM) was greater than 99.6%. It also gave an Unbound (human plasma proteins; 1 μM) of less than 0.392%, a Remaining (human plasma proteins; 1 μM) of 57.9 ± 4.9% and a Bound (human plasma proteins; 10 μM) greater than 99.96%. For the same compound, the Remaining (human plasma proteins; 10 μM) was 74.5 ± 3.4%, the recovery at 6 h, 0.1 μM ([1]; pH 7.4, 0.1 μM) was less than 69.1% and the recovery at 6 h, 1 μM ([1]; pH 7.4, 1 μM) was less than 64%. For the same compound, the recovery at 6 h, 10 μM ([1]; pH 7.4, 10 μM) was less than 74.7%, the half-life at 1 μM ([2]; read-out: Estimated In Vitro t1/2) was 34.4 ± 0.6 min and the hepatocyte CLint at 1 μM ([2]; read-out: In Vitro Clint) was 40.3 ± 0.7 µL/min/1e6 cells. For the same compound, the CLint scaled at 1 μM ([2]; read-out: Scaled-Up Clint) was 476 ± 8 mL/min/kg, the “Remaining at 120 min” value (mouse hepatocytes) was 6.24 ± 0.58% and the “Percent of Control” value (CYP3A4; donor one, 0.15 µM) was −4.55%. The “Percent of Control” value (CYP3A4; donor one, 1.5 µM) was −7.08%, the “Percent of Control” value (CYP3A4; donor one, 5 µM) was 4.85% and the “Percent of Control” value (CYP3A4; donor one, 15 µM) was 9.95%. For the same compound, the “Percent of Control” value (CYP3A4; donor three, 0.15 µM) was −5.29%, the “Percent of Control” value (CYP3A4; donor three, 1.5 µM) was −2.34% and the “Percent of Control” value (CYP3A4; donor three, 5 µM) was −6.62%. The “Percent of Control” value (CYP3A4; donor three, 15 µM) was −9.26%, the “Percent of Control” value (CYP3A4; donor two, 0.15 µM) was −2.26% and the “Percent of Control” value (CYP3A4; donor two, 1.5 µM) was 4.83%. The “Percent of Control” value (CYP3A4; donor two, 5 µM) was 22.4%, the “Percent of Control” value (CYP3A4; donor two, 15 µM) was 21.5% and the fold induction at 72 h, 0.15 µM (CYP3A4; donor one, 0.15 µM) was 0.774 ± 0.078. It also gave a fold induction at 72 h, 1.5 µM (CYP3A4; donor one, 1.5 µM) of 0.649 ± 0.085, a fold induction at 72 h, 5 µM (CYP3A4; donor one, 5 µM) of 1.24 ± 0.18 and a fold induction at 72 h, 15 µM (CYP3A4; donor one, 15 µM) of 1.49 ± 0.21. For the same compound, the fold induction at 72 h, 0.15 µM (CYP3A4; donor three, 0.15 µM) was 0.61 ± 0.043, the fold induction at 72 h, 1.5 µM (CYP3A4; donor three, 1.5 µM) was 0.828 ± 0.082 and the fold induction at 72 h, 5 µM (CYP3A4; donor three, 5 µM) was 0.513 ± 0.081. It also gave a fold induction at 72 h, 15 µM (CYP3A4; donor three, 15 µM) of 0.318 ± 0.005, a fold induction at 72 h, 0.15 µM (CYP3A4; donor two, 0.15 µM) of 0.797 ± 0.1 and a fold induction at 72 h, 1.5 µM (CYP3A4; donor two, 1.5 µM) of 1.43 ± 0.14. It also gave a fold induction at 72 h, 5 µM (CYP3A4; donor two, 5 µM) of 3.01 ± 0.33 and a fold induction at 72 h, 15 µM (CYP3A4; donor two, 15 µM) of 2.92 ± 0.25.
